Measured values from US20110081428A1, “Use of thioflavin-like compounds to increase life span and/or health span” (priority 2009, published 2011).

Legend:
N2 worms = test: Locomotory ability / spontaneous movement (body bends); type: in vivo, Caenorhabditis elegans; conditions: 50 μM ThT
Method: (§1) Data are presented as bends/min and represent the average of three independent experiments. *p<0.0001. e) Dose-response Kaplan-Meier survival curves of synchronously ageing hermaphrodite N2 populations exposed to 0 (control) to […], f) HBX and g) HBT at 20° C. (−) Control, (▪) 1 nM, ([…]) 10 μM, (▴) 100 μM, (▾) […]. Graphs are representative of three independent experiments.

PS3551 [hsf-1(sy441)I] = test: Lifespan assay, hsf-1 mutant; type: in vivo, Caenorhabditis elegans; conditions: 50 μM ThT, 100 μM curcumin
Method: Lifespan assays were performed as described previously. (McColl, G. et al. Pharmacogenetic analysis of lithium-induced delayed aging in Caenorhabditis elegans. J Biol Chem 283, 350-357 (2008). Briefly, the nematode growth media (NGM) plates were prepared under sterile conditions. 100 μL of concentrated stocks of each of the compounds used in this study were added onto a previously prepared NGM small plate (3 mL volume) immediately spread over the surface of the plate. The final concentrations quoted in the text assume an even distribution of compound throughout the 3 ml plate. The plates were then placed in a laminar flow hood at room temperature for 30 min and then 60 μL of a concentrated suspension of E. coli OP50 was spotted to form a circular lawn on the center of each plate. Thirty late L4 larvae growing at 20° C. were transferred to fresh NGM plates with FUdR (75 μM) in presence or absence of the specified compounds and incubated at 20° C. The first day of adulthood is Day 3 in survival curves. […] ThT concentration should be optimized depending on batch and purity and stability of the compound.
Animals were scored as alive, dead or lost every other day. […] Animals that died from causes other than ageing, such as sticking to the plate walls, internal hatching of eggs (“bagging”) or gonadal extrusion were censored as were lost worms. […]

[1] = system: aggregation-prone soluble oligomeric protein (A11 antibody) in CL4176; test: A11 immunolocalization of soluble oligomeric protein, CL4176; type: in vivo, Caenorhabditis elegans; conditions: CL4176, 50 μM ThT
Method: (§2) For fluorescent microscopy, TJ356 zIs356 IV [daf-16::daf-16-gfp+rol-6] or CF2189 Is001(skn-1::gfp+rol-6) were paralyzed with 1 mM levamisole mounted on 1% agarose pads and imaged using Olympus BX51 (60× objective) and HCImage software (Hamamatsu). For immunofluorescence, N2, […], CB1157 unc-54(e1157) or CL4176 dvIs27 [myo-3::Aβ(3 to 42)-let 3′UTR(pAF29); pRF4 (rol-6(su1006))] worms were treated for 24-36 h with or without 50 μM ThT at 25° C. After this period the worms were collected, rinsed, and fixed in 4% paraformaldehyde overnight. […] Paramyosin and perlecans were detected with primary monoclonal antibodies 5-23 and MH3 (developed by Henry Epstein and Robert H. Waterston and obtained from the Developmental Studies Hybridoma Bank developed under the auspices of the NICHD and maintained by The University of Iowa, Department of Biology, Iowa City, Iowa 52242) and AlexaFluor 633 goat anti-mouse (Molecular Probes) as secondary antibody. Soluble oligomers and Aβ peptide were detected with anti polyclonal All (Invitrogen) and 6E10 monoclonal (Covance) primary antibodies, respectively, with AlexaFluor 568 goat anti-rabbit and AlexaFluor 488 goat anti-mouse (Molecular Probes) as secondary antibodies. Images were processed and quantified by using Image Analyst MK II (Novato, Calif.).

[2] = target: Aβ3-42 aggregates in CL4176 (Homo sapiens, UniProt P05067); test: Aβ aggregation in vivo by immunohistochemistry; set-up: species or system Caenorhabditis elegans; conditions: CL4176, 50 μM ThT
Method: For immunofluorescence, N2, unc-He250 52(e669su250), CB1157 unc-54(e1157) or CL4176 dvIs27 [myo-3::Aβ(3 to 42)-let 3′UTR(pAF29); pRF4 (rol-6(su1006))] worms were treated for 24-36 h with or without 50 μM ThT at 25° C. After this period the worms were collected, rinsed, and fixed in 4% paraformaldehyde overnight. After fixation, worms were rinsed twice with 1 ml of 10 mM Tris-HCl pH 7.5 and then permeabilized by 24 h exposure to β-mercaptoethanol at 37° C. followed by collagenase treatment (2 mg/ml for 1-1.5 at 37° C.) to allow for digestion of the cuticle. Paramyosin and perlecans were detected with primary monoclonal antibodies 5-23 and MH3 (developed by Henry Epstein and Robert H. Waterston and obtained from the Developmental Studies Hybridoma Bank developed under the auspices of the NICHD and maintained by The University of Iowa, Department of Biology, Iowa City, Iowa 52242) and AlexaFluor 633 goat anti-mouse (Molecular Probes) as secondary antibody. Soluble oligomers and Aβ peptide were detected with anti polyclonal All (Invitrogen) and 6E10 monoclonal (Covance) primary antibodies, respectively, with AlexaFluor 568 goat anti-rabbit and AlexaFluor 488 goat anti-mouse (Molecular Probes) as secondary antibodies. Images were processed and quantified by using Image Analyst MK II (Novato, Calif.).

wildtype (N2) C. elegans = test: Demographic analysis of age-specific mortality (Gompertz); type: in vivo, Caenorhabditis elegans; conditions: 50 μM ThT, p<0.001
Method: as §1
Estimates of initial mortality rate and rate of increase with age and model fitting were made using WinModest. Gompertz mortality curves, ln(ux)=ln(a)+bx, where ux defines the age-specific hazard, were fitted with log-likelihood ratios used to examined the effects of constraining the intercept (a) or gradient (b) variables.

[3] = system: N2 worms raised on 1×10^9 cfu/ml; test: Lifespan under dietary restriction (diluted bacterial food); conditions: 20° C.
Method: Plates were prepared as described (Chen, D., Thomas, E. L. & Kapahi, P. HIF-1 modulates dietary restriction-mediated lifespan extension via IRE-1 in Caenorhabditis elegans. PLoS Genet. 5, e1000486, (2009), but bacterial concentration was adjusted to 1.0×10^12 cfu/ml and diluted to achieve bacterial concentration of 1.0×10^9 cfu/ml. Diluted bacterial cultures were spotted onto DR agar plates, which were modified from the standard nematode growth media (NGM) plates by excluding peptone and increasing agar from 1.7% to 2.0%. Carbenicillin ([…]) was added to the agar plates to further prevent bacterial growth. Synchronized L4 larvae grown under standard lab conditions (NGM plates with OP50 food, 20° C.) were transferred to fresh DR agar plates in presence or absence of 1, 10, 25, 50 and 100 μM ThT and lifespans scored as described above.

[4] = system: aggregation-prone soluble oligomeric protein (A11 antibody) in N2; test: A11 immunolocalization of soluble oligomeric protein, N2; type: in vivo, Caenorhabditis elegans; conditions: N2, 11 days old, 50 μM ThT
Method: as §2

[5] = system: DAF-16 fusion protein [TJ356 daf-16::daf-16-gfp]; test: DAF-16::GFP localization; type: in vivo, Caenorhabditis elegans; conditions: ThT or curcumin treatment, no heat shock
Method: as §2

[6] = system: CL4176 (Aβ3-42 expressed in muscle); test: Worm paralysis assay, Aβ model; type: in vivo, Caenorhabditis elegans
Method: Scoring for paralysis was initiated 2 and 8 days after temperature upshift for CL4176 and AM140, respectively. […] For sensitivity to EtOH or levamisole resistance, CW152 gas-1 (fc21) X and ZZ26 unc-63(x26)I worms were picked into 0.4 M EtOH or 50 μM levamisole, respectively, equilibrated for 5 min, and scored for paralysis as described above. Treated and untreated worms were compared with an unpaired t-test (implemented in Prism 4, Graphpad™ Software, Inc., San Diego, Calif., USA).

DA465 [eat-2(ad465)II] = test: Lifespan assay, eat-2 mutant; type: in vivo, Caenorhabditis elegans; conditions: 50 μM ThT
Method: Lifespan assays were performed as described previously. (McColl, G. et al. Pharmacogenetic analysis of lithium-induced delayed aging in Caenorhabditis elegans. J Biol Chem 283, 350-357 (2008). Briefly, the nematode growth media (NGM) plates were prepared under sterile conditions. 100 μL of concentrated stocks of each of the compounds used in this study were added onto a previously prepared NGM small plate (3 mL volume) immediately spread over the surface of the plate. The final concentrations quoted in the text assume an even distribution of compound throughout the 3 ml plate. The plates were then placed in a laminar flow hood at room temperature for 30 min and then 60 μL of a concentrated suspension of E. coli OP50 was spotted to form a circular lawn on the center of each plate. Thirty late L4 larvae growing at 20° C. were transferred to fresh NGM plates with FUdR (75 μM) in presence or absence of the specified compounds and incubated at 20° C. The first day of adulthood is Day 3 in survival curves. There was between-experiment variation in the magnitude of the lifespan extension observed with ThT which appeared to correlate with different suppliers and batches. ThT concentration should be optimized depending on batch and purity and stability of the compound. […]
Animals were scored as alive, dead or lost every other day. […]

Sequence of Aβ3-42 aggregates in CL4176 (P05067 674-713): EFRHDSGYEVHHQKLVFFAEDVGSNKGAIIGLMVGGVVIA

Cc1ccc2c(c1)sc(-c1ccc(N(C)C)cc1)[n+]2C.[Cl-] [ThT, 4-(3,6-dimethyl-1,3-benzothiazol-3-ium-2-yl)-N,N-dimethylaniline chloride]
age-related decline in spontaneous movement (N2 worms): retarded age-related decline in spontaneous movement
lifespan of hsf-1(sy441) mutant (PS3551 [hsf-1(sy441)I]): does not increase lifespan
A11-positive oligomeric material [1]: significantly decreased
Aβ aggregate formation and muscle integrity [2]: reduced aggregate formation and preserved the muscle integrity
age-specific mortality (wildtype (N2) C. elegans): reduced age-specific mortality at all ages
lifespan in bacterial dilution DR model ([3]; 50 μM ThT): detrimental to lifespan
increase in lifespan in bacterial dilution DR model ([3]; 1 and 10 μM ThT): 24%
A11-positive oligomeric material [4]: significantly decreased
DAF-16::GFP localization [5]: did not alter the normal localization
paralysis when treated after aggregation induction ([6]; CL4176, 50 μM ThT added 18 h after induction of aggregate formation): rescued the Aβ3-42 aggregation-induced paralysis
proportion of paralyzed worms ([6]; CL4176, 25° C., 50 μM ThT, 100 μM curcumin): significantly decrease the proportion of paralyzed worms
lifespan of eat-2 mutant (genetic DR model) (DA465 [eat-2(ad465)II]): increased the lifespan
